#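 96-well plates; 48 h exposure; 5 concentrations. Endpoints by linear interpolation between flanking doses. Not reached: highest tested concentration assigned. Abbreviation: GI50, concentration required for 50% inhibition of growth. TGI marks complete inhibition of growth.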
# How the values were obtained:
# Experiment in all cases: DTP human tumour cell line panel, 48 h
# [1] = test system: 786-0 renal
# [2] = test system: A498 renal
# [3] = test system: A549 NSCLC
# [4] = test system: ACHN renal
# [5] = test system: BT-549 breast
# [6] = test system: CAKI-1 renal
# [7] = test system: CCRF-CEM leukemia
# [8] = test system: COLO 205 colon
# [9] = test system: DU-145 prostate
# [10] = test system: EKVX NSCLC
# [11] = test system: HCC-2998 colon
# [12] = test system: HCT-116 colon
# [13] = test system: HCT-15 colon
# [14] = test system: HL-60(TB) leukemia
# [15] = test system: HOP-62 NSCLC
# [16] = test system: HOP-92 NSCLC
# [17] = test system: HS 578T breast
# [18] = test system: HT29 colon
# [19] = test system: IGROV1 ovarian
# [20] = test system: K-562 leukemia
# [21] = test system: KM12 colon
# [22] = test system: LOX IMVI melanoma
# [23] = test system: M14 melanoma
# [24] = test system: MALME-3M melanoma
# [25] = test system: MDA-MB-231 breast
# [26] = test system: MDA-MB-435
# [27] = test system: MOLT-4 leukemia
# [28] = test system: NCI-H226 lung
# [29] = test system: NCI-H23 lung
# [30] = test system: NCI-H460 lung
# [31] = test system: NCI-H522 lung
# [32] = test system: NCI/ADR-RES ovarian
# [33] = test system: OVCAR-3 ovarian
# [34] = test system: OVCAR-4 ovarian
# [35] = test system: OVCAR-5 ovarian
# [36] = test system: OVCAR-8 ovarian
# [37] = test system: PC-3 prostate
# [38] = test system: RPMI-8226 leukemia
# [39] = test system: RXF 393 renal
# [40] = test system: SF-268 CNS
# [41] = test system: SF-295 CNS
# [42] = test system: SK-MEL-2 melanoma
# [43] = test system: SK-MEL-28 melanoma
# [44] = test system: SK-MEL-5 melanoma
# [45] = test system: SK-OV-3 ovarian
# [46] = test system: SNB-19 CNS
# [47] = test system: SNB-75 CNS
# [48] = test system: SR leukemia
# [49] = test system: SW-620 colon
# [50] = test system: T-47D breast
# [51] = test system: TK-10 renal
# [52] = test system: U251 CNS
# [53] = test system: UACC-257 melanoma
# [54] = test system: UACC-62 melanoma
# [55] = test system: UO-31 renal
# [56] = test system: MCF7 breast
# [57] = test system: SF-539 CNS
# [58] = test system: SN12C renal
compound,measurement,setting,value
O=C1CNc2cc(N3CCN(c4ccccc4)CC3)ccc2N1,TGI,[1],> 100 µM
same,TGI,[2],> 100 µM
same,TGI,[3],> 100 µM
same,TGI,[4],> 100 µM
same,TGI,[5],> 100 µM
same,TGI,[6],> 100 µM
same,TGI,[7],> 100 µM
same,TGI,[8],> 100 µM
same,TGI,[9],> 100 µM
same,TGI,[10],> 100 µM
same,TGI,[11],> 100 µM
same,TGI,[12],> 100 µM
same,TGI,[13],> 100 µM
same,TGI,[14],> 100 µM
same,TGI,[15],> 100 µM
same,TGI,[16],> 100 µM
same,TGI,[17],> 100 µM
same,TGI,[18],> 100 µM
same,TGI,[19],> 100 µM
same,TGI,[20],> 100 µM
same,TGI,[21],> 100 µM
same,TGI,[22],> 100 µM
same,TGI,[23],> 100 µM
same,TGI,[24],> 100 µM
same,TGI,[25],> 100 µM
same,TGI,[26],> 100 µM
same,TGI,[27],> 100 µM
same,TGI,[28],> 100 µM
same,TGI,[29],> 100 µM
same,TGI,[30],> 100 µM
same,TGI,[31],> 100 µM
same,TGI,[32],> 100 µM
same,TGI,[33],> 100 µM
same,TGI,[34],> 100 µM
same,TGI,[35],> 100 µM
same,TGI,[36],> 100 µM
same,TGI,[37],> 100 µM
same,TGI,[38],> 100 µM
same,TGI,[39],> 100 µM
same,TGI,[40],> 100 µM
same,TGI,[41],> 100 µM
same,TGI,[42],> 100 µM
same,TGI,[43],> 100 µM
same,TGI,[44],> 100 µM
same,TGI,[45],> 100 µM
same,TGI,[46],> 100 µM
same,TGI,[47],> 100 µM
same,TGI,[48],> 100 µM
same,TGI,[49],> 100 µM
same,TGI,[50],> 100 µM
same,TGI,[51],> 100 µM
same,TGI,[52],> 100 µM
same,TGI,[53],> 100 µM
same,TGI,[54],> 100 µM
same,TGI,[55],> 100 µM
COc1ccc2c(c1)CC1Cc3cc(OC)c(OC)cc3CN1CC2 (centres undefined),TGI,[1],> 100 µM
same,TGI,[2],> 100 µM
same,TGI,[3],> 100 µM
same,TGI,[4],> 100 µM
same,TGI,[5],> 100 µM
same,TGI,[6],> 100 µM
same,TGI,[7],89 µM
same,TGI,[8],> 100 µM
same,TGI,[9],> 100 µM
same,TGI,[10],> 100 µM
same,TGI,[11],> 100 µM
same,TGI,[12],> 100 µM
same,TGI,[13],> 100 µM
same,TGI,[14],34.3 µM
same,TGI,[15],> 100 µM
same,TGI,[16],67.2 µM
same,TGI,[17],> 100 µM
same,TGI,[18],> 100 µM
same,TGI,[19],> 100 µM
same,TGI,[20],> 100 µM
same,TGI,[21],> 100 µM
same,TGI,[22],> 100 µM
same,TGI,[23],> 100 µM
same,TGI,[24],> 100 µM
same,TGI,[25],> 100 µM
same,TGI,[26],> 100 µM
same,TGI,[27],> 100 µM
same,TGI,[28],> 100 µM
same,TGI,[29],> 100 µM
same,TGI,[30],> 100 µM
same,TGI,[31],> 100 µM
same,TGI,[32],> 100 µM
same,TGI,[33],> 100 µM
same,TGI,[34],> 100 µM
same,TGI,[35],> 100 µM
same,TGI,[36],> 100 µM
same,TGI,[37],> 100 µM
same,TGI,[38],> 100 µM
same,TGI,[39],> 100 µM
same,TGI,[40],> 100 µM
same,TGI,[41],> 100 µM
same,TGI,[42],> 100 µM
same,TGI,[43],> 100 µM
same,TGI,[44],> 100 µM
same,TGI,[45],> 100 µM
same,TGI,[46],> 100 µM
same,TGI,[47],> 100 µM
same,TGI,[48],60.3 µM
same,TGI,[49],> 100 µM
same,TGI,[50],> 100 µM
same,TGI,[51],> 100 µM
same,TGI,[52],> 100 µM
same,TGI,[53],> 100 µM
same,TGI,[54],> 100 µM
same,TGI,[55],> 100 µM
Nc1nc(-c2cccc3ccccc23)cc2ccccc12,GI50,[1],0.503 µM
same,TGI,[1],13.4 µM
same,GI50,[2],0.351 µM
same,TGI,[2],3.96 µM
same,GI50,[3],0.476 µM
same,TGI,[3],14.9 µM
same,GI50,[4],1.1 µM
same,TGI,[4],18.3 µM
same,GI50,[5],13.2 µM
same,TGI,[5],27.9 µM
same,GI50,[6],0.46 µM
same,TGI,[6],19.6 µM
same,GI50,[7],0.234 µM
same,TGI,[7],3.17 µM
same,GI50,[8],0.332 µM
same,TGI,[8],1.9 µM
same,GI50,[9],0.377 µM
same,TGI,[9],2.98 µM
same,GI50,[10],1.29 µM
same,TGI,[10],> 40.4 µM
same,GI50,[11],0.231 µM
same,TGI,[11],1.12 µM
same,GI50,[12],0.342 µM
same,TGI,[12],13.4 µM
same,GI50,[13],0.409 µM
same,TGI,[13],12.6 µM
same,GI50,[14],0.232 µM
same,TGI,[14],> 100 µM
same,GI50,[15],1 µM
same,TGI,[15],17.6 µM
same,GI50,[16],1.63 µM
same,TGI,[16],11.9 µM
same,GI50,[17],0.245 µM
same,TGI,[17],3.91 µM
same,GI50,[18],0.358 µM
same,TGI,[18],12.9 µM
same,GI50,[19],0.444 µM
same,TGI,[19],5.44 µM
same,GI50,[20],4.81 µM
same,TGI,[20],> 100 µM
same,GI50,[21],0.386 µM
same,TGI,[21],9.7 µM
same,GI50,[22],0.777 µM
same,TGI,[22],14.2 µM
same,GI50,[23],0.549 µM
same,TGI,[23],12.4 µM
same,GI50,[56],0.108 µM
same,TGI,[56],13.1 µM
same,GI50,[25],0.712 µM
same,TGI,[25],13.4 µM
same,GI50,[27],0.638 µM
same,TGI,[27],> 54.2 µM
same,GI50,[28],1.12 µM
same,TGI,[28],15.9 µM
same,GI50,[29],0.732 µM
same,TGI,[29],24.1 µM
same,GI50,[30],0.332 µM
same,TGI,[30],10.6 µM
same,GI50,[31],0.324 µM
same,TGI,[31],2.85 µM
same,GI50,[32],0.463 µM
same,TGI,[32],22.1 µM
same,GI50,[33],0.343 µM
same,TGI,[33],10.4 µM
same,GI50,[34],1.6 µM
same,TGI,[34],24.4 µM
same,GI50,[35],1.25 µM
same,TGI,[35],19.7 µM
same,GI50,[36],0.577 µM
same,TGI,[36],17.8 µM
same,GI50,[37],0.257 µM
same,TGI,[37],4.08 µM
same,GI50,[38],0.214 µM
same,TGI,[38],0.573 µM
same,GI50,[40],0.53 µM
same,TGI,[40],10.8 µM
same,GI50,[41],0.278 µM
same,TGI,[41],13.8 µM
same,GI50,[57],0.291 µM
same,TGI,[57],1.69 µM
same,GI50,[42],0.647 µM
same,TGI,[42],22.3 µM
same,GI50,[43],0.563 µM
same,TGI,[43],24 µM
same,GI50,[44],0.287 µM
same,TGI,[44],10.3 µM
same,GI50,[45],0.466 µM
same,TGI,[45],13.9 µM
same,GI50,[58],0.789 µM
same,TGI,[58],16 µM
same,GI50,[46],0.514 µM
same,TGI,[46],13.4 µM
same,GI50,[47],0.206 µM
same,TGI,[47],3.8 µM
same,TGI,[48],> 44.2 µM
same,GI50,[49],0.314 µM
same,TGI,[49],20 µM
same,GI50,[50],0.359 µM
same,TGI,[50],33.9 µM
same,GI50,[51],6.3 µM
same,TGI,[51],29.4 µM
same,GI50,[52],0.494 µM
same,TGI,[52],13.2 µM
same,GI50,[53],0.196 µM
same,TGI,[53],16 µM
same,GI50,[54],0.521 µM
same,TGI,[54],14.6 µM
same,GI50,[55],1.17 µM
same,TGI,[55],9.68 µM
